The nature of data set [1]: Evaluation of metabolic stability. Format: in vitro ADME, human. Particulars: 0.2 mg/mL HLM, 0.1 μM test substance, 15 minutes at 37° C., with vs without NADPH production. Here is the method:
A test substance was dissolved in DMSO so that the concentration of the resultant solution became 20 mM, and the solution was diluted with DMSO so that the concentration of the resultant solution became 1 mM. The metabolic stability of the test substance was evaluated using a human liver microsome (HLM) in which human liver was pooled. An assay buffer solution contained 0.2 mg/mL of HLM, a 0.1 M of phosphate potassium buffer solution (pH 7.4), 0.1 mM of EDTA, 0.33 mM of NADP+, 8 mM of glucose-6-phosphate, 0.1 U/mL of glucose-6-phosphate dehydrogenase, 6 mM of MgCl2, 0.1 μM of a test substance (final concentration in DMSO: 0.01%) in 0.15 mL of the final incubation volume. Fifteen minutes after the initiation of the reaction at 37° C., 0.15 mL of a acetonitrile/methanol mixed solution (7:3, by volume) was added to the solution to terminate the reaction. After centrifugation, the resultant supernatant was analyzed by LC-MSMS, peak areas were compared under the presence or absence of the production of NADPH, and the residual ratio of the test substance was calculated.

Data set [2] can be described thus: PAMPA test (parallel artificial membrane permeability assay). The format is in vitro ADME. The note with it: phosphate buffer pH 6.8, about 200 μM, about 5 hours, room temperature, read-out: Test Example 4 membrane permeation coefficient Pe. As for the experimental part: A test solution (see below) was stirred while shaking at room temperature for about 5 hours using a 96-well PAMPA plate (BD Biosciences) in which a lipid had been precoated onto a polyvinylidene fluoride (PVDF) film to evaluate the membrane permeation coefficient Pe (cm/s) of each compound dissolved in the test solution (concentration: about 200 μM) upon the transport of the compound from a donor side to an acceptor side through a lipid membrane. The Pe value was calculated in accordance with equations 1 and 2, and the concentration of the compound on the donor side and the acceptor side was measured by a HPLC-UV method. In 0.3 mL of the test solution on the donor side is contained about 1% (v/v) of DMSO, since 3 μL of a DMSO solution containing the compound at a concentration of 20 mM was added to the test solution.
Test solution: a phosphate buffer solution having a pH value of 6.8 (90 mM of phosphate, 48 mM of NaCl, 5.4 mM of KCl)
Conditions for stirring: a multishaker MS-300 (AS ONE Corporation), 350 rpm
[formula] CD(t): compound concentration in donor well at time t CA(t): compound concentration in acceptor well at time t VD: donor well volume (0.3 mL) VA: acceptor well volume (0.2 mL) A: filter area (0.3 cm^2)

Data set [3] in a line: Evaluation of solubility (DMSO stock into PBS, HPLC-UV). Format: physicochemical. The note with it: Dulbecco's phosphate-buffered saline pH 7, room temperature, about 15 minutes shaking, values greater than 200 μM regarded as 200 μM, read-out: Test Example 3 solubility. As for the experimental part:
To 0.25 mL of a test solution a mentioned below was added 2.5 μL of a DMSO solution having a compound concentration of 20 mM. The resultant solution was shaken at room temperature for about 15 minutes (the conditions for the shaking are mentioned below). Subsequently, a supernatant was collected by a suction filtration under a reduced pressure. A DMSO solution having a compound concentration of 200 μM was used as a standard solution, and the concentration of a compound in a filtrate which was quantified by a HPLC-UV method was employed as a solubility (rounded off to the whole number). In this evaluation, since a value 200 μM became the upper limit operationally, all of quantification values greater than 200 μM were regarded as 200 μM.
Test solution: GIBCO (registered trade name) Dulbecco's phosphate-buffered saline (pH 7, Life Technologies Corporation)
Conditions for shaking: a microplate shaker N-704 (Nissinrika Corporation), speed 6

The subject of a further data set is Wnt signal. The experiment in a line: Detection of Wnt signal (TOPglow luciferase reporter, LiCl-stimulated). Format: cell-based. Particulars: Homo sapiens; HEK293 clone carrying pNeo-TOP reporter; LiCl stimulation; luciferase luminescence; read-out: Test Example 1 IC50 (concentration required for inhibiting the Wnt signal activity by 50%). As for the experimental part: pcDNA3.1(+) (invitrogen) was cleaved with restriction enzymes BglII and NotI, and an adapter BEHKS having a sequence shown below (containing restriction enzyme sites BglII, EcoRI, HindIII, KpnI, SacI and NotI) was inserted thereinto, thereby producing a plasmid pNeo-HKS.
Subsequently, a fragment having a length of about 2700 bp (containing a Wnt-responsive sequence and a luciferase gene), which was prepared by cleaving from a TOPglow plasmid contained in a TOPglow/FOPglow TCF Reporter Kit (upstate Catalog#17-366) with restriction enzymes HindIII and KpnI, was inserted between HindIII and KpnI in pNeo-HKS, thereby producing a plasmid pNeo-TOP. The plasmid pNeo-TOP was introduced into human fetus-derived renal cell strain HEK293, then a compound was selected using G418, and then a cell clone strain was established by a limiting dilution method. The cell clone strain was subjected to a Wnt signal detection test.
The cell clone strain was subcultured in a D-MEM glucose-rich culture medium (Wako Pure Chemical Industries, Ltd.) containing 10% FBS, and cells in a growth phase were used in the test. Cells were collected using trypsin-EDTA, the number of the cells was counted, and then the cells were suspended in a D-MEM glucose-rich culture medium containing 10% FBS so that the number of cells became 2×10^5 cells/mL. The cell suspension was added to a 96-well cell culture plate (Greiner Bio-One Co., Ltd., product number: 655083) in an amount of 0.1 mL/well and then cultured overnight in a 5% CO2 incubator (37° C.). After the culturing, a substance to be tested, which was dissolved in DMSO, was diluted with a D-MEM glucose-rich culture medium containing 10% of FBS and 80 mM of LiCl to produce a sample solution. The sample solution (0.1 mL) was added to each well and then cultured in a 5% CO2 incubator (37° C.) […]. Six hours after the addition of the sample solution, a supernatant was removed from each well, and then 50 μL of Bright-Glo™ Luciferase substrate (Promega, product number: E2620) was added thereto. The plate was put on a plate mixer for several seconds, and then the emission of light from each well was measured using a EnVision™ Multilabel plate reader (PerkinElmer Co., Ltd.). The Wnt signal activation rate (%) of each well was determined, and a concentration (IC50) which is required for inhibiting the Wnt signal activity of a substance of interest by 50% was calculated, wherein the luminosity of a well to which a sample solution was not added and LiCl was added was defined as a 100% Wnt signal activity and the luminosity of a well to which either of a sample solution or LiCl was not added was defined as a 0% Wnt signal activity.

[4] abbreviates: aqueous buffer, kinetic from dmso stock.

Structures are written as SMILES. pIC50: −log10 of the molar value. ≈ marks a conversion by molar mass, not a printed value. Where two headings read alike, the source gives them in different places.

`C=CCN1CC(=O)N2[C@@H](Cc3ccc(O)cc3)C(=O)N(Cc3cccnc3N3CCC(N4CCCC4)CC3)C[C@@H]2N1C(=O)NCc1ccccc1` [Comparative Example 1, (6S,9aS)-N-Benzyl-6-(4-hydroxybenzyl)-4,7-dioxo-8-((2-(4-(pyrrolidin-1-yl)piperidin-1-yl)pyridin-3-yl)methyl)-2-(prop-2-en-1-yl)-octahydro-1H-pyrazino[2,1-c][1,2,4]triazine-1-carboxamide, reference compound]: the “Test Example 2 residual ratio of the test substance” value (shortened to “Test Example 2 residual ratio”) in data set [1] was determined as 52.9%. The Papp in data set [2] was 1.34 ×10⁻⁶ cm/s. For the same compound, the solubility in data set [3] (setting [4]) was 97 µM (≈ 67.2 µg/mL). Further, in the data set with Wnt signal, the pIC50 is 4.63.
In the case of `C[C@H]1C2N(C(=O)CN(C)N2C(=O)NCc2ccccc2)[C@@H](Cc2ccc(O)cc2)C(=O)N1Cc1cccc2cccnc12` (stereo partly drawn) [Comparative Example 2, (6S,9S)-N-Benzyl-6-(4-hydroxybenzyl)-2,9-dimethyl-4,7-dioxo-8-(quinolin-8-ylmethyl)octahydro-1H-pyrazino[2,1-c][1,2,4]triazine-1-carboxamide, reference compound], the “Test Example 2 residual ratio” value in data set [1] was 0.6%. In addition, in data set [2], the Papp was found to be 0.85 ×10⁻⁶ cm/s. Also, in data set [3] (setting [4]), the solubility is 122 µM (≈ 70.6 µg/mL). Further, the pIC50 in the data set on Wnt signal is 6.48.
With `C=CCN1CC(=O)N2[C@@H](Cc3ccc(O)cc3)C(=O)N(Cc3cccc(N4CC(N5CCN(CC)CC5)C4)n3)C[C@@H]2N1C(=O)NCc1ccccc1` [Example 2, (6S,9aS)-N-Benzyl-8-((6-(3-(4-ethylpiperazin-1-yl)azetidin-1-yl)pyridin-2-yl)methyl)-6-((4-hydroxyphenyl)methyl)-4,7-dioxo-2-(prop-2-en-1-yl)-octahydro-1H-pyrazino[2,1-c][1,2,4]triazine-1-carboxamide], the “Test Example 2 residual ratio” value in data set [1] is reported as 58%. Further, the Papp in data set [2] came to 1.32 ×10⁻⁶ cm/s. For the same compound, the solubility in data set [3] is recorded as 200 µM (≈ 142 µg/mL). Besides, the pIC50 with Wnt signal is 6.54.
`C=CCN1CC(=O)N2[C@@H](Cc3ccc(O)cc3F)C(=O)N(Cc3cccc(N4CC(N5CCN(C)CC5)C4)n3)C[C@@H]2N1C(=O)NCc1ccccc1` [Example 3, (6S,9aS)-N-Benzyl-6-((2-fluoro-4-hydroxyphenyl)methyl)-8-((6-(3-(4-methylpiperazin-1-yl)azetidin-1-yl)pyridin-2-yl)methyl)-4,7-dioxo-2-(prop-2-en-1-yl)-octahydro-1H-pyrazino[2,1-c][1,2,4]triazine-1-carboxamide]: the “Test Example 2 residual ratio” value in data set [1] came to 54%. Besides, in data set [2], the Papp turned out to be 1.33 ×10⁻⁶ cm/s. Also, the solubility in data set [3] is on record as 200 µM (≈ 142 µg/mL). Further, in the data set on Wnt signal, the pIC50 is 6.82.
For `C=CCN1CC(=O)N2[C@@H](Cc3ccc(O)cc3F)C(=O)N(Cc3cccc(N4CC(N5CCN(C)[C@@H](C)C5)C4)n3)C[C@@H]2N1C(=O)NCc1ccccc1` [Example 4, (6S,9aS)-N-Benzyl-8-((6-(3-((3S)-3,4-dimethylpiperazin-1-yl)azetidin-1-yl)pyridin-2-yl)methyl)-6-((2-fluoro-4-hydroxyphenyl)methyl)-4,7-dioxo-2-(prop-2-en-1-yl)-octahydro-1H-pyrazino[2,1-c][1,2,4]triazine-1-carboxamide], in data set [1], the “Test Example 2 residual ratio” value is listed as 44%. In addition, in data set [2], the Papp turned out to be 2.03 ×10⁻⁶ cm/s. Moreover, the solubility in data set [3] (setting [4]) turned out to be 199 µM (≈ 144 µg/mL). The pIC50 with Wnt signal was 7.22.
As for `C=CCN1CC(=O)N2[C@@H](Cc3ccc(O)cc3F)C(=O)N(Cc3cccc(N4CC(N5CCN(C)[C@H](C)C5)C4)n3)C[C@@H]2N1C(=O)NCc1ccccc1` [Example 5, (6S,9aS)-N-Benzyl-8-((6-(3-((3R)-3,4-dimethylpiperazin-1-yl)azetidin-1-yl)pyridin-2-yl)methyl)-6-((2-fluoro-4-hydroxyphenyl)methyl)-4,7-dioxo-2-(prop-2-en-1-yl)-octahydro-1H-pyrazino[2,1-c][1,2,4]triazine-1-carboxamide], the “Test Example 2 residual ratio” value in data set [1] was 39%. In addition, the Papp in data set [2] stood at 1.18 ×10⁻⁶ cm/s. In addition, the solubility in data set [3] was 200 µM (≈ 145 µg/mL). Further, the pIC50 in the data set with Wnt signal is 7.09.
In the case of `C=CCN1CC(=O)N2[C@@H](Cc3ccc(O)cc3)C(=O)N(Cc3cccc(N4CC(N5CCN(C)C[C@@H]5C)C4)n3)C[C@@H]2N1C(=O)NCc1ccccc1` [Example 6, (6S,9aS)-N-Benzyl-8-((6-(3-((2S)-2,4-dimethylpiperazin-1-yl)azetidin-1-yl)pyridin-2-yl)methyl)-6-((4-hydroxyphenyl)methyl)-4,7-dioxo-2-(prop-2-en-1-yl)-octahydro-1H-pyrazino[2,1-c][1,2,4]triazine-1-carboxamide], the “Test Example 2 residual ratio” value in data set [1] was determined as 55%. In data set [2], the Papp is 1.27 ×10⁻⁶ cm/s. Further, the solubility in data set [3] (setting [4]) amounted to 195 µM (≈ 138 µg/mL). In the data set on Wnt signal, the pIC50 was 6.60.
Take `C=CCN1CC(=O)N2[C@@H](Cc3ccc(O)cc3)C(=O)N(Cc3cccc(N4CC(N5CCN(C)CC5)C4)n3)C[C@@H]2N1C(=O)NCc1ccccc1` [Example 29, (6S,9aS)-N-Benzyl-6-((4-hydroxyphenyl)methyl)-8-((6-(3-(4-methylpiperazin-1-yl)azetidin-1-yl)pyridin-2-yl)methyl)-4,7-dioxo-2-(prop-2-en-1-yl)-octahydro-1H-pyrazino[2,1-c][1,2,4]triazine-1-carboxamide]: the “Test Example 2 residual ratio” value in data set [1] is 63%. For the same compound, the solubility in data set [3] worked out at 200 µM (≈ 139 µg/mL). For the same compound, the pIC50 with Wnt signal was 6.33.
